Measurements from ChEMBL document CHEMBL1201862, “PubChem BioAssay data set” (2004).
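Dose response: 5 concentrations. Exposure: 48 h. Format: 96-well plates. Endpoint: linear interpolation; highest concentration if not reached. The concentration for 50% growth inhibition is given as GI50.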 The source made the active and inactive calls. Rule as the data show it: active = GI50 up to about 1.1 µM and inactive = higher.

What was measured:
Test in all cases: NCI anticancer screen, dose series, 48 h
[1] = test system: KM12
[2] = test system: A549
[3] = test system: SK-MEL-2
[4] = test system: NCI-H522
[5] = test system: UO-31
[6] = test system: HOP-92
[7] = test system: M14
[8] = test system: Malme-3M
[9] = test system: MDA-MB-231
[10] = test system: CAKI-1
[11] = test system: MCF7
[12] = test system: SK-OV-3
[13] = test system: MDA-MB-435
[14] = test system: OVCAR-8
[15] = test system: DU-145
[16] = test system: HOP-62
[17] = test system: Hs-578T
[18] = test system: LOX IMVI
[19] = test system: T47D
[20] = test system: HCT-116
[21] = test system: BT-549
[22] = test system: TK-10
[23] = test system: UACC-257
[24] = test system: RPMI-8226
[25] = test system: OVCAR-3
[26] = test system: HCT-15
[27] = test system: EKVX
[28] = test system: OVCAR-5
[29] = test system: HT-29
[30] = test system: OVCAR-4
[31] = test system: HCC 2998
[32] = test system: SN12C
[33] = test system: SF-268
[34] = test system: SNB-75
[35] = test system: COLO 205
[36] = test system: RXF 393
[37] = test system: NCI-H23
[38] = test system: MDA-N
[39] = test system: A498
[40] = test system: PC-3
[41] = test system: CCRF-CEM
[42] = test system: SR
[43] = test system: U-251
[44] = test system: NCI/ADR-RES
[45] = test system: SK-MEL-5
[46] = test system: UACC-62
[47] = test system: SF-295
[48] = test system: SNB-19
[49] = test system: ACHN
[50] = test system: 786-0
[51] = test system: NCI-H460
[52] = test system: MOLT-4
[53] = test system: SF-539
[54] = test system: HL-60
[55] = test system: IGROV-1
[56] = test system: NCI-H226
[57] = test system: SK-MEL-28
[58] = test system: SW-620

For `O=C(CCCCCCCCC(=O)N1C(=O)CC(=O)N(c2ccccc2)C1=S)N1C(=O)CC(=O)N(c2ccccc2)C1=S`, the GI50 [1] was > 100 µM (inactive), the GI50 [2] was > 100 µM (inactive) and the GI50 [3] was > 100 µM (inactive). The GI50 [4] was > 100 µM (inactive), the GI50 [5] was > 100 µM (inactive) and the GI50 [6] was > 100 µM (inactive). The GI50 [7] was > 100 µM (inactive), the GI50 [8] was > 100 µM (inactive) and the GI50 [9] was > 100 µM (inactive). For the same compound, the GI50 [10] was > 100 µM (inactive), the GI50 [11] was > 100 µM (inactive) and the GI50 [12] was > 100 µM (inactive). For the same compound, the GI50 [13] was > 100 µM (inactive), the GI50 [14] was > 100 µM (inactive) and the GI50 [15] was > 100 µM (inactive). For the same compound, the GI50 [16] was > 100 µM (inactive), the GI50 [17] was > 100 µM (inactive) and the GI50 [18] was > 100 µM (inactive). For the same compound, the GI50 [19] was > 100 µM (inactive), the GI50 [20] was > 100 µM (inactive) and the GI50 [21] was > 100 µM (inactive). The GI50 [22] was > 100 µM (inactive), the GI50 [23] was > 100 µM (inactive) and the GI50 [24] was > 100 µM (inactive). The GI50 [25] was > 100 µM (inactive), the GI50 [26] was over 100 µM and the GI50 [27] was > 100 µM (inactive). For the same compound, the GI50 [28] was > 100 µM (inactive), the GI50 [29] was > 100 µM (inactive) and the GI50 [30] was > 100 µM (inactive). For the same compound, the GI50 [31] was > 100 µM (inactive), the GI50 [32] was > 100 µM (inactive) and the GI50 [33] was > 100 µM (inactive). For the same compound, the GI50 [34] was > 100 µM (inactive), the GI50 [35] was > 100 µM (inactive) and the GI50 [36] was > 100 µM (inactive). The GI50 [37] was > 100 µM (inactive), the GI50 [38] was > 100 µM (inactive) and the GI50 [39] was > 100 µM (inactive). For the same compound, the GI50 [40] was > 100 µM (inactive), the GI50 [41] was > 100 µM (inactive) and the GI50 [42] was > 100 µM (inactive). For the same compound, the GI50 [43] was > 100 µM (inactive), the GI50 [44] was > 100 µM (inactive) and the GI50 [45] was > 100 µM (inactive). The GI50 [46] was > 100 µM (inactive), the GI50 [47] was > 100 µM (inactive) and the GI50 [48] was > 100 µM (inactive). For the same compound, the GI50 [49] was > 100 µM (inactive), the GI50 [50] was > 100 µM (inactive) and the GI50 [51] was > 100 µM (inactive). The GI50 [52] was > 100 µM (inactive).
`Cc1ccc(Nc2nc(=O)[nH]c(=O)[nH]2)cc1N` was tested, and the GI50 [1] was > 100 µM (inactive), the GI50 [2] was > 100 µM (inactive) and the GI50 [3] was > 100 µM (inactive). For the same compound, the GI50 [4] was > 100 µM (inactive), the GI50 [6] was > 100 µM (inactive) and the GI50 [7] was > 100 µM (inactive). For the same compound, the GI50 [53] was > 100 µM (inactive), the GI50 [54] was > 100 µM (inactive) and the GI50 [8] was > 100 µM (inactive). For the same compound, the GI50 [9] was > 100 µM (inactive), the GI50 [10] was > 100 µM (inactive) and the GI50 [11] was > 100 µM (inactive). The GI50 [12] was > 100 µM (inactive), the GI50 [13] was 26.5 µM (inactive) and the GI50 [14] was > 100 µM (inactive). For the same compound, the GI50 [15] was > 100 µM (inactive), the GI50 [16] was > 100 µM (inactive) and the GI50 [17] was > 100 µM (inactive). The GI50 [18] was > 100 µM (inactive), the GI50 [55] was > 100 µM (inactive) and the GI50 [19] was > 100 µM (inactive). For the same compound, the GI50 [20] was > 100 µM (inactive), the GI50 [21] was > 100 µM (inactive) and the GI50 [22] was > 100 µM (inactive). The GI50 [23] was > 100 µM (inactive), the GI50 [24] was > 100 µM (inactive) and the GI50 [25] was > 100 µM (inactive). For the same compound, the GI50 [26] was over 100 µM, the GI50 [27] was > 100 µM (inactive) and the GI50 [28] was > 100 µM (inactive). For the same compound, the GI50 [29] was > 100 µM (inactive), the GI50 [56] was > 100 µM (inactive) and the GI50 [30] was > 100 µM (inactive). The GI50 [31] was > 100 µM (inactive), the GI50 [32] was > 100 µM (inactive) and the GI50 [33] was > 100 µM (inactive). The GI50 [34] was > 100 µM (inactive), the GI50 [35] was > 100 µM (inactive) and the GI50 [57] was 32.7 µM (inactive). For the same compound, the GI50 [37] was > 100 µM (inactive), the GI50 [38] was > 100 µM (inactive) and the GI50 [39] was > 100 µM (inactive). The GI50 [40] was > 100 µM (inactive), the GI50 [41] was > 100 µM (inactive) and the GI50 [42] was > 100 µM (inactive). The GI50 [43] was 27.5 µM (inactive), the GI50 [44] was > 100 µM (inactive) and the GI50 [45] was > 100 µM (inactive). The GI50 [46] was > 100 µM (inactive), the GI50 [47] was > 100 µM (inactive) and the GI50 [58] was 30.8 µM (inactive). For the same compound, the GI50 [48] was > 100 µM (inactive), the GI50 [49] was > 100 µM (inactive) and the GI50 [50] was > 100 µM (inactive). The GI50 [51] was > 100 µM (inactive).
